Measurements: ChEMBL document CHEMBL1671743, “Affinity of ceftobiprole for penicillin-binding protein 2b in Streptococcus pneumoniae strains with various susceptibilities to penicillin” (Antimicrob Agents Chemother, 2010)
≈ marks a conversion by molar mass, not a printed value.

Assays:
Streptococcus pneumoniae [1] = assay: Antimicrobial activity against laboratory-derived Streptococcus pneumoniae isolate R6 by broth microdilution method; type: functional
[2] = target: T1, Penicillin-binding protein 2B (Streptococcus pneumoniae (strain ATCC BAA-255 / R6), UniProt P0A3M6, T446A); assay: Inhibition of Bocillin FL binding to PBP2b Thr446Ala mutant in laboratory-derived Streptococcus pneumoniae isolate R6
T1 sequence (P0A3M6 whole entry T446A): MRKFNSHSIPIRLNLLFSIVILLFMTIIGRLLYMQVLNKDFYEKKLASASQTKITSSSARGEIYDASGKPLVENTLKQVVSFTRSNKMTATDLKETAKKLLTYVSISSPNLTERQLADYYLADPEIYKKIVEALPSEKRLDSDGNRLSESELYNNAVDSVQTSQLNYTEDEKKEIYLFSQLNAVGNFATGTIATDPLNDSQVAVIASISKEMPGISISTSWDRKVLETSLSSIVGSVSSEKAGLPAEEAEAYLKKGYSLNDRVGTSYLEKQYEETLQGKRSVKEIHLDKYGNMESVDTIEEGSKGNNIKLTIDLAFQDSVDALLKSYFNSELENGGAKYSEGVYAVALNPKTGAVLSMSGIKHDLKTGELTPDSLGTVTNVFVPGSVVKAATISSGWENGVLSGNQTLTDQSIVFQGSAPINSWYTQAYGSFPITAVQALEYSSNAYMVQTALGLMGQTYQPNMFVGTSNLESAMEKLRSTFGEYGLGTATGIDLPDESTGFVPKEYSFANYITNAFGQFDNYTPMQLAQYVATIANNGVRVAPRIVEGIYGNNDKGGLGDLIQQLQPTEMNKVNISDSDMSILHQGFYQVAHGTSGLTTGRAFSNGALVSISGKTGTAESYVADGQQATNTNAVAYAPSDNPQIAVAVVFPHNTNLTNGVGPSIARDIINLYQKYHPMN

Streptococcus pneumoniae [3] = assay: Antimicrobial activity against penicillin intermediate resistant Streptococcus pneumoniae isolate 8882 harboring PBP2b 443SSNA mutant by broth microdilution method; type: functional
[4] = target: T1, Penicillin-binding protein 2B; assay: Inhibition of Streptococcus pneumoniae isolate 8882 Bocillin FL binding to PBP2b 443SSNA mutant
[5] = target: Penicillin-binding protein 2B (Streptococcus pneumoniae (strain ATCC BAA-255 / R6), UniProt P0A3M6, A619G/T446A); assay: Inhibition of Bocillin FL binding to PBP2b Thr446Ala/Ala-619-Gly mutant in laboratory-derived Streptococcus pneumoniae isolate R6
Penicillin-binding protein 2B (Streptococcus pneumoniae (strain ATCC BAA-255 / R6), UniProt P0A3M6, A619G/T446A), sequence (P0A3M6 whole entry T446A/A619G): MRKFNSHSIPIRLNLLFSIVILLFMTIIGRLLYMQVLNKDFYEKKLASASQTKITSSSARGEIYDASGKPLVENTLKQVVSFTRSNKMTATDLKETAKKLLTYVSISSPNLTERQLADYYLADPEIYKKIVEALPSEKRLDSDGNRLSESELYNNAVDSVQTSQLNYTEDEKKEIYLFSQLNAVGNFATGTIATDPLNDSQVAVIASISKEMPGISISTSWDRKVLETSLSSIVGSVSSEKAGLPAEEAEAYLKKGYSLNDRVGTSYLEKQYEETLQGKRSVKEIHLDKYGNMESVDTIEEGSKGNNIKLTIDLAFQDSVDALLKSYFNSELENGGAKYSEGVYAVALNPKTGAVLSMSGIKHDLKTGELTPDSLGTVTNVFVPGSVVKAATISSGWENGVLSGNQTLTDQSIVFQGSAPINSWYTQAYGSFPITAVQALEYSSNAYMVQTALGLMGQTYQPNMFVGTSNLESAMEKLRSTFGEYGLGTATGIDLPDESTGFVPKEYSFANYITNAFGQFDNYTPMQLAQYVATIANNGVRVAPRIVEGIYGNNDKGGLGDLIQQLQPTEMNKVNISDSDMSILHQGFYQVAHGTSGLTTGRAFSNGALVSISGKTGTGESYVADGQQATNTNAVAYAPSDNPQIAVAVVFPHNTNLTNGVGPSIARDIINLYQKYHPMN

[6] = target: T2, Penicillin-binding protein 2B (Streptococcus pneumoniae serotype 4 (strain ATCC BAA-334 / TIGR4), UniProt P0A3M5); assay: Inhibition of Bocillin FL binding to PBP2b in laboratory-derived Streptococcus pneumoniae isolate R6
T2 sequence (P0A3M5 whole entry): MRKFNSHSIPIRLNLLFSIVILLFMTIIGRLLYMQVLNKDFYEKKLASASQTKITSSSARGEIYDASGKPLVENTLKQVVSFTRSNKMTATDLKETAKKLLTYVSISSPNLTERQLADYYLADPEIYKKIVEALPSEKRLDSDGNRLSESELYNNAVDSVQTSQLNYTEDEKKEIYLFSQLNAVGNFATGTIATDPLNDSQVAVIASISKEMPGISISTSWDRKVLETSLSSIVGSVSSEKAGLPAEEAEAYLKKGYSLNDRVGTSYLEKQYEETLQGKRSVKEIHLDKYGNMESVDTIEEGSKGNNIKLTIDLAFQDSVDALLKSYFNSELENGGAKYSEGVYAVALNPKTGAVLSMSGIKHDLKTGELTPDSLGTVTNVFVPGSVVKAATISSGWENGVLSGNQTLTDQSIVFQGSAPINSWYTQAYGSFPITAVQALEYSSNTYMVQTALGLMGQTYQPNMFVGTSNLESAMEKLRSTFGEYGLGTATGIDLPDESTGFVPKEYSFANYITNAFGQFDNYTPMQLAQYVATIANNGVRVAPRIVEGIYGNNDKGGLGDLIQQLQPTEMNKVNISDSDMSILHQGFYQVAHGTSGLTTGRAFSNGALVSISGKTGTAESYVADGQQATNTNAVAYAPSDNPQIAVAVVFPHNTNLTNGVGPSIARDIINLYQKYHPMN

[7] = target: T2, Penicillin-binding protein 2B; assay: Inhibition of Bocillin FL binding to Streptococcus pneumoniae isolate 8865 PBP2b
Streptococcus pneumoniae [8] = assay: Antimicrobial activity against penicillin resistant Streptococcus pneumoniae isolate 8819 harboring PBP2b 443SSNA mutant by broth microdilution method; type: functional
Streptococcus pneumoniae [9] = assay: Antimicrobial activity against penicillin sensitive Streptococcus pneumoniae isolate 8865 by broth microdilution method; type: functional
Streptococcus pneumoniae [10] = assay: Antimicrobial activity against laboratory-derived Streptococcus pneumoniae isolate R6 harboring Thr446Ala mutant gene by broth microdilution method; type: functional
[11] = target: Penicillin-binding protein 2B (Streptococcus pneumoniae (strain ATCC BAA-255 / R6), UniProt P0A3M6, A619G); assay: Inhibition of Bocillin FL binding to PBP2b in Streptococcus pneumoniae isolate 8819 harboring E333G, I361L, E369D, S412P, N422Y, T426K, Q427L, Q438E, L455I, S473T, E476G, S480A, T489A, N538D, D561E, Q564K, and D625G mutant genes
Penicillin-binding protein 2B (Streptococcus pneumoniae (strain ATCC BAA-255 / R6), UniProt P0A3M6, A619G), sequence (P0A3M6 whole entry A619G): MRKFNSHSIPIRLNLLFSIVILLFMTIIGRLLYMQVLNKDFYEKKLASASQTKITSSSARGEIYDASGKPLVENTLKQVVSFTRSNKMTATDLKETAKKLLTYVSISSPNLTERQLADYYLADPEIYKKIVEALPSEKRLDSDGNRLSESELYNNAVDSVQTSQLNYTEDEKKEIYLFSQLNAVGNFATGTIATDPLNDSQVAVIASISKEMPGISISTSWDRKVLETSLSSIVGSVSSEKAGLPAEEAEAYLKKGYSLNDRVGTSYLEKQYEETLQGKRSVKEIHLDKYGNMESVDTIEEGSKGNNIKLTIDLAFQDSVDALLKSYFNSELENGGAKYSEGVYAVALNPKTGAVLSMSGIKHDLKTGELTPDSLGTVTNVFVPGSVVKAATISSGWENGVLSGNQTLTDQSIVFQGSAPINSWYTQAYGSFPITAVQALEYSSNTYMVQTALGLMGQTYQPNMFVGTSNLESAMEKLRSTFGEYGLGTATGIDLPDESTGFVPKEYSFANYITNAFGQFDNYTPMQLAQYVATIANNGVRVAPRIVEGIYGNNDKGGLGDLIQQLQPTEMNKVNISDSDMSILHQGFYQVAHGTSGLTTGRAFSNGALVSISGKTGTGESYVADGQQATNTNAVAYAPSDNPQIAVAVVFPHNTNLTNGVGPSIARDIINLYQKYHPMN

[12] = target: T1, Penicillin-binding protein 2B; assay: Inhibition of Bocillin FL binding to PBP2b PBP2b 443SSNA mutant in Streptococcus pneumoniae isolate 8009 harboring E333G, N470K, E476G, T489S, E506D, and N538D mutant genes
Streptococcus pneumoniae [13] = assay: Antimicrobial activity against laboratory-derived Streptococcus pneumoniae isolate R6 harboring Thr446Ala/Ala-619-Gly mutant gene by broth microdilution method; type: functional
Streptococcus pneumoniae [14] = assay: Antimicrobial activity against penicillin intermediate resistant Streptococcus pneumoniae isolate 8009 harboring PBP2b 443SSNA mutant by broth microdilution method; type: functional

With CC1(C)S[C@@H]2[C@H](NC(=O)Cc3ccccc3)C(=O)N2[C@H]1C(=O)O [PENICILLIN G] the MIC (Streptococcus pneumoniae [1]) was 0.015 µg/mL (≈ 0.0449 µM), the IC50 [2] was 2390 nM and the MIC (Streptococcus pneumoniae [3]) was 0.12 µg/mL (≈ 0.359 µM). The IC50 [4] was 7480 nM, the IC50 [5] was 5380 nM and the IC50 [6] was 449 nM. It also gave an IC50 [7] of 23.9 nM, an MIC (Streptococcus pneumoniae [8]) of 8 µg/mL (≈ 23.9 µM) and an MIC (Streptococcus pneumoniae [9]) of at most 0.015 µg/mL. For the same compound, the MIC (Streptococcus pneumoniae [10]) was 0.015 µg/mL (≈ 0.0449 µM), the IC50 [11] was over 23900 nM and the IC50 [12] was 7480 nM. The MIC (Streptococcus pneumoniae [13]) was 0.03 µg/mL (≈ 0.0897 µM) and the MIC (Streptococcus pneumoniae [14]) was 0.12 µg/mL (≈ 0.359 µM).

In the case of Nc1nc(/C(=N/O)C(=O)N[C@@H]2C(=O)N3C(C(=O)O)=C(/C=C4\CCN([C@@H]5CCNC5)C4=O)CS[C@H]23)ns1 [CEFTOBIPROLE], the MIC (Streptococcus pneumoniae [1]) is reported as 0.002 µg/mL (≈ 0.00374 µM), the IC50 [2] is reported as 1310 nM and the MIC (Streptococcus pneumoniae [3]) is reported as 0.008 µg/mL (≈ 0.015 µM). For the same compound, the IC50 [4] was 2240 nM, the IC50 [5] was 3180 nM and the IC50 [6] was 112 nM. The IC50 [7] was 112 nM, the MIC (Streptococcus pneumoniae [8]) was 1 µg/mL (≈ 1.87 µM) and the MIC (Streptococcus pneumoniae [9]) was 0.008 µg/mL (≈ 0.015 µM). It also gave an MIC (Streptococcus pneumoniae [10]) of 0.002 µg/mL (≈ 0.00374 µM), an IC50 [11] of over 15000 nM and an IC50 [12] of 1680 nM. For the same compound, the MIC (Streptococcus pneumoniae [13]) was 0.004 µg/mL (≈ 0.00748 µM) and the MIC (Streptococcus pneumoniae [14]) was 0.015 µg/mL (≈ 0.0281 µM).

For CO/N=C(\C(=O)N[C@@H]1C(=O)N2C(C(=O)O)=C(CSc3nc(=O)c(O)nn3C)CS[C@H]12)c1csc(N)n1 [CEFTRIAXONE], the MIC (Streptococcus pneumoniae [1]) was 0.008 µg/mL (≈ 0.0144 µM), the MIC (Streptococcus pneumoniae [3]) was 0.06 µg/mL (≈ 0.108 µM) and the IC50 [4] was over 14400 nM. The IC50 [6] was over 14400 nM, the IC50 [7] was over 14400 nM and the MIC (Streptococcus pneumoniae [8]) was 8 µg/mL (≈ 14.4 µM). The MIC (Streptococcus pneumoniae [9]) was 0.03 µg/mL (≈ 0.0541 µM), the MIC (Streptococcus pneumoniae [10]) was 0.008 µg/mL (≈ 0.0144 µM) and the IC50 [11] was over 14400 nM. The IC50 [12] was over 14400 nM, the MIC (Streptococcus pneumoniae [13]) was 0.015 µg/mL (≈ 0.027 µM) and the MIC (Streptococcus pneumoniae [14]) was 0.06 µg/mL (≈ 0.108 µM).
